According to publication PMC3024946, “Hydroxyproline-containing collagen analogs trigger the release and activation of collagen-sequestered proMMP-2 by competition with prodomain-derived peptide P33-42” (Fibrogenesis & Tissue Repair, 2011):

Test system: Cy2-proMMP-2 bound to cirrhotic human liver tissue
Assay: Release / prevention of binding of Cy2-proMMP-2 in cirrhotic liver sections
Details: 10-fold molar excess, fluorescence microscopy
Method: ProMMP-2 was labeled using the FluoroLink Cy2 Labeling Kit according to the manufacturer's instructions (Amersham Biosciences, Freiburg, Germany). Unbound fluorescent dye was removed by ultrafiltration (Nanosep, Lund, Sweden), and labeling success was monitored using a fluorescence microplate reader (λex/em, 489/506 nm). Serial cirrhotic human liver sections were covered with 1.2 μg/ml Cy2-proMMP-2 in 50 mM Tris·HCl, pH 7.4, containing 1 mM CaCl2 or with buffer alone, and were incubated in a dark humidified chamber for 24 h at 4°C. To study effects of (GPO)10, a 10-fold molar excess in relation to proMMP-2 was added to slides prior to or after Cy2-proMMP-2 binding. Slides were washed with PBS, air-dried, and rinsed with deionized water. Bound Cy2-proMMP-2 was detected by fluorescence microscopy (Olympus, Hamburg, Germany).

- prevention of binding of Cy2-proMMP-2 (coincubation): prevented gelatinase binding
Substance: H-Gly-Cys-Hyp-(Gly-Pro-Hyp)10-Gly-Cys-Hyp-Gly-NH2 [(GPO)10, triple-helical Hyp-containing collagen analog]
- release of bound Cy2-proMMP-2 (subsequent treatment): promoted effective release of the sequestered enzyme
